Test results reported in ChEMBL document CHEMBL1201862, “PubChem BioAssay data set” (2004).
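The compound was tested at five concentrations on cells cultured in 96-well plates, with a 48-hour exposure period. Abbreviation: GI50, concentration required for 50% inhibition of growth.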 Calls of active or inactive are those of the source. No stated cut-off is given here; in the data, active = GI50 up to about 1.1 µM and inactive = higher.

Experiments:
Experiment in all cases: NCI anticancer screen, dose series, 48 h
[1] = tested on: K562
[2] = tested on: A549
[3] = tested on: SF-268
[4] = tested on: HCT-116
[5] = tested on: HOP-62
[6] = tested on: SK-OV-3
[7] = tested on: Malme-3M
[8] = tested on: SK-MEL-28
[9] = tested on: SNB-75
[10] = tested on: M14
[11] = tested on: CCRF-CEM
[12] = tested on: U-251
[13] = tested on: MDA-MB-231
[14] = tested on: OVCAR-4
[15] = tested on: TK-10
[16] = tested on: LOX IMVI
[17] = tested on: SN12C
[18] = tested on: SW-620
[19] = tested on: SF-539

Row | SMILES | GI50 [1] | GI50 [2] | GI50 [3] | GI50 [4] | GI50 [5] | GI50 [6] | GI50 [7] | GI50 [8] | GI50 [9] | GI50 [10] | GI50 [11] | GI50 [12] | GI50 [13] | GI50 [14] | GI50 [15] | GI50 [16] | GI50 [17] | GI50 [18] | GI50 [19]
1 | O=c1[nH]c(=O)n(C2CC(O)C(CO)O2)cc1OCCc1ccccc1 (configuration not stated) | > 100 µM (inactive) | > 100 µM (inactive) | > 100 µM (inactive) | > 100 µM (inactive) | > 100 µM (inactive) | > 100 µM (inactive) | > 100 µM (inactive) | > 100 µM (inactive) | > 100 µM (inactive) | > 100 µM (inactive) | > 100 µM (inactive) | > 100 µM (inactive) | > 100 µM (inactive) | > 100 µM (inactive) | > 100 µM (inactive) | > 100 µM (inactive) | > 100 µM (inactive) |  | 
2 | OCC(CCc1c[nH]c2ccccc12)c1c[nH]c2ccccc12 (configuration not stated) | 18.2 µM (inactive) | 17.6 µM (inactive) | 17.3 µM (inactive) | 15.5 µM (inactive) | 20.5 µM (inactive) | 30.5 µM (inactive) | 17 µM (inactive) | 20.5 µM (inactive) | 19.7 µM (inactive) | 15.3 µM (inactive) |  | 16.7 µM (inactive) | 14.1 µM (inactive) | 17.9 µM (inactive) | 19.6 µM (inactive) | 14.3 µM (inactive) | 17.5 µM (inactive) | 15.7 µM (inactive) | 18.4 µM (inactive)
3 | CCOC(=O)c1nc2cc(C(F)(F)F)ccc2nc1Nc1cc(OC)c(OC)c(OC)c1 | > 100 µM (inactive) | > 100 µM (inactive) | > 100 µM (inactive) | > 100 µM (inactive) | > 100 µM (inactive) | > 100 µM (inactive) | > 100 µM (inactive) | > 100 µM (inactive) | > 100 µM (inactive) | > 100 µM (inactive) | > 100 µM (inactive) | > 100 µM (inactive) | > 100 µM (inactive) |  | > 100 µM (inactive) | > 100 µM (inactive) | > 100 µM (inactive) | > 100 µM (inactive) | > 100 µM (inactive)
4 | COc1ccccc1/[N+]([O-])=C/c1ccccc1OC(=S)S | 29.5 µM (inactive) | > 100 µM (inactive) | 33.7 µM (inactive) | 42 µM (inactive) |  | > 100 µM (inactive) | 96.4 µM (inactive) | > 100 µM (inactive) | 25.8 µM (inactive) | 41.1 µM (inactive) |  | 41.7 µM (inactive) | 30.9 µM (inactive) | 28.3 µM (inactive) | > 100 µM (inactive) | 28.1 µM (inactive) | 88.1 µM (inactive) | 44.5 µM (inactive) | 57.1 µM (inactive)
5 | COCN1C(=O)[C@@H]2CCCN2C(=O)c2ccc(Cl)cc21 | > 100 µM (inactive) | > 100 µM (inactive) | > 100 µM (inactive) | > 100 µM (inactive) | > 100 µM (inactive) | > 100 µM (inactive) | > 100 µM (inactive) | > 100 µM (inactive) | > 100 µM (inactive) | > 100 µM (inactive) |  | > 100 µM (inactive) | > 100 µM (inactive) | > 100 µM (inactive) | > 100 µM (inactive) | > 100 µM (inactive) | > 100 µM (inactive) | > 100 µM (inactive) | 
6 | CCCS(=O)(=O)Nc1ccc(Nc2c3ccccc3nc3ccccc23)c(OC)c1 |  | 0.43 µM (active) | 0.853 µM (active) | 0.929 µM (active) | 0.561 µM (active) | 2.08 µM (inactive) | 1.04 µM (active) |  | 1.04 µM (active) | 0.467 µM (active) | 0.0475 µM (active) | 0.641 µM (active) | 3.32 µM (inactive) | 7.62 µM (inactive) | 3.78 µM (inactive) | 0.315 µM (active) | 0.127 µM (active) | 2.08 µM (inactive) | 1.17 µM (inactive)
7 | CC(=O)OCC1OC(n2c(-c3ccc(C)cc3)cc(-c3ccccc3)c(C#N)c2=S)C(OC(C)=O)C(OC(C)=O)C1OC(C)=O (configuration not stated) | > 100 µM (inactive) | > 100 µM (inactive) | > 100 µM (inactive) | > 100 µM (inactive) | > 100 µM (inactive) | > 100 µM (inactive) | > 100 µM (inactive) | > 100 µM (inactive) | 32.7 µM (inactive) | > 100 µM (inactive) |  | > 100 µM (inactive) | > 100 µM (inactive) | 81.1 µM (inactive) | > 100 µM (inactive) | > 100 µM (inactive) | > 100 µM (inactive) | > 100 µM (inactive) | > 100 µM (inactive)
8 | Cc1ccc2nc(NC(=O)C(=O)C3C(=O)NC(=S)NC3=O)sc2c1 |  | > 100 µM (inactive) | > 100 µM (inactive) | > 100 µM (inactive) | > 100 µM (inactive) | > 100 µM (inactive) | 55.6 µM (inactive) | > 100 µM (inactive) | > 100 µM (inactive) | > 100 µM (inactive) | > 100 µM (inactive) | > 100 µM (inactive) | > 100 µM (inactive) | > 100 µM (inactive) | > 100 µM (inactive) | > 100 µM (inactive) | > 100 µM (inactive) | > 100 µM (inactive) | > 100 µM (inactive)
9 | Brc1c(C#CCC2CCCCC2)ccc(C#CCC2CCCCC2)c1Br | > 100 µM (inactive) | > 100 µM (inactive) | > 100 µM (inactive) |  |  |  | > 100 µM (inactive) | > 100 µM (inactive) | > 100 µM (inactive) | > 100 µM (inactive) | > 100 µM (inactive) | > 100 µM (inactive) | > 100 µM (inactive) | > 100 µM (inactive) | > 100 µM (inactive) | > 100 µM (inactive) | > 100 µM (inactive) | > 100 µM (inactive) | > 100 µM (inactive)
10 | Cn1c(COC(=O)NC2CCCCC2)c(COC(=O)NC2CCCCC2)c2ccc3cc(C=O)ccc3c21 | > 100 µM (inactive) | > 100 µM (inactive) | 37.5 µM (inactive) | > 100 µM (inactive) |  | > 100 µM (inactive) | > 100 µM (inactive) |  | 18.6 µM (inactive) | > 100 µM (inactive) | > 100 µM (inactive) | 27.9 µM (inactive) | 85.1 µM (inactive) |  | > 100 µM (inactive) | > 100 µM (inactive) | > 100 µM (inactive) | > 100 µM (inactive) | > 100 µM (inactive)
11 | COC(=O)c1cc(-c2ccc3ccccc3c2)nc(O)c1C#N |  | > 100 µM (inactive) | > 100 µM (inactive) | > 100 µM (inactive) | > 100 µM (inactive) | > 100 µM (inactive) | > 100 µM (inactive) | > 100 µM (inactive) | > 100 µM (inactive) | > 100 µM (inactive) |  | > 100 µM (inactive) | > 100 µM (inactive) | > 100 µM (inactive) | > 100 µM (inactive) | > 100 µM (inactive) | > 100 µM (inactive) | > 100 µM (inactive) | > 100 µM (inactive)
12 | CC(C)(C)C1=NN=C2c3ccccc3C(=O)C21 (configuration not stated) | 35.2 µM (inactive) | 45.1 µM (inactive) | 58.9 µM (inactive) | > 100 µM (inactive) | > 100 µM (inactive) |  | 36.2 µM (inactive) | 55.8 µM (inactive) | 79.6 µM (inactive) | 76.6 µM (inactive) | 63.2 µM (inactive) | 46.9 µM (inactive) | 40.4 µM (inactive) | 38.8 µM (inactive) | 53 µM (inactive) | 41.1 µM (inactive) | 42.6 µM (inactive) | 65.6 µM (inactive) | 38.4 µM (inactive)
13 | CC(C)c1ccc(NC(=S)NC(=O)c2ccccc2)cc1 | 12.1 µM (inactive) | 30.8 µM (inactive) | 21.4 µM (inactive) | 22.2 µM (inactive) | 33.8 µM (inactive) | 42 µM (inactive) | 24.5 µM (inactive) | 20.8 µM (inactive) |  | 17.3 µM (inactive) | 11.4 µM (inactive) | 26.9 µM (inactive) | 26.6 µM (inactive) | 16.9 µM (inactive) | 18.2 µM (inactive) | 15.3 µM (inactive) | 34.6 µM (inactive) | 22.3 µM (inactive) | 36.2 µM (inactive)
14 | O=c1[nH]c(=O)c2c3n(cc2[nH]1)CCCCC3 | > 100 µM (inactive) | > 100 µM (inactive) | > 100 µM (inactive) | > 100 µM (inactive) | > 100 µM (inactive) | > 100 µM (inactive) | > 100 µM (inactive) | > 100 µM (inactive) | > 100 µM (inactive) | > 100 µM (inactive) | > 100 µM (inactive) | > 100 µM (inactive) | 64.4 µM (inactive) | > 100 µM (inactive) | 17.5 µM (inactive) | > 100 µM (inactive) | > 100 µM (inactive) |  | 
15 | O=C(O)c1ccc(N2C=[N+]3C(=Nc4ccccc43)C2)cc1 | > 100 µM (inactive) | > 100 µM (inactive) | > 100 µM (inactive) | > 100 µM (inactive) | > 100 µM (inactive) | > 100 µM (inactive) | 0.475 µM (active) | > 100 µM (inactive) | 62.7 µM (inactive) | > 100 µM (inactive) | > 100 µM (inactive) | > 100 µM (inactive) | > 100 µM (inactive) | > 100 µM (inactive) | > 100 µM (inactive) | > 100 µM (inactive) | > 100 µM (inactive) | > 100 µM (inactive) | 
16 | CN(C)CCNc1ncnc2nc(-c3ccccc3)c(-c3ccccc3)nc12 |  | > 100 µM (inactive) | > 100 µM (inactive) | > 100 µM (inactive) | > 100 µM (inactive) | > 100 µM (inactive) | > 100 µM (inactive) | > 100 µM (inactive) | 87.7 µM (inactive) | > 100 µM (inactive) | > 100 µM (inactive) | > 100 µM (inactive) | > 100 µM (inactive) |  | > 100 µM (inactive) | > 100 µM (inactive) | > 100 µM (inactive) | > 100 µM (inactive) | > 100 µM (inactive)
